Results taken from patent US20100160443A1, “COMPOUNDS USEFUL FOR TREATING NEUROLOGICAL DISORDERS” (Yissum Research Development Company of The Hebrew …, priority 2003, published 2010).

Legend:
[1] = system: maximal electroshock (MES) test; conditions: rat, in vivo, po; cited from earlier work
[2] = Plasma drug concentration and pharmacokinetics after i.p. administration to SNL operated rats; assay type: in vivo, rat; conditions: for minimal plasma concentration associated with the antiallodynic effect: SNL rats; for CL/F / Cmax / MRT / Tmax / half-life: rat, ip
Experimental: 0.5% MC, and […] of blood were collected from the amputated tail tip at each of three time points after injection. Blood was withdrawn for group 1 at 15, 60 and 180 min after dosing; for group 2 at 30, 90 and 240 min after dosing and for group 3 at 45, 120 and 360 min after dosing. Plasma was immediately separated by centrifugation at 3000 g for 15 min and stored at −20° C. until analyzed.
Plasma levels of VPA and DID were determined by gas chromatography (GC). An HP5890 series II GC equipped with FID detector, HP7673 autosampler, for DID HP-5 capillary column (0.25 μm×15 m×0.25 mm) was used. The temperature program was as follows: injector temperature 250° C.; initial temperature, 60° C. for 3 min; gradient of 15° C. min-1 until 180° C.; hold 5 min. For each drug, plasma levels obtained from 3 rats at each time point were averaged. 25 μl of internal standard solution (50 mg L^−1 of VPD for the DID assay) and 200 μl of 0.1M NaOH were added to 50 μl of plasma. The mixture was vortexed, and 1 ml of chloroform was added. The phases were separated, and the chloroform was evaporated. The dry residue was redissolved in 50 μl of chloroform, and 1 μl was injected into the gas chromatograph. Calibration curves were prepared separately by spiking naïve rat plasma samples with 1.56, 2.5, 3.12, 6.25, 12.5, 25.0, 37.5, 50.0, 75.0 and 100.0 mg L^−1 of DID. The limit of quantification (LOQ) of the method was 1.56 μg/ml, and the coefficient of variation (CV %) was <15% at all analyzed concentrations including LOQ.
The temperature program was as follows: injector temperature 280° C.; oven temperature, 135° C. 30 μl of internal standard solution (250 mg L-1 of 1-methyl-1cyclohexane carboxylic acid, MCCA, in MeOH) and 125 μl of 5N Hydrochloric acid (HCl) were added to 250 μl of plasma. The mixture was vortexed, and 2 ml of chloroform was added. The phases were separated, and the 1 ml of NaOH was added. 200 μl of HCl 5N and 2 ml of chloroform were added to the aqueous phase. The organic layer was evaporated and dry residue was redissolved in 50 μl of chloroform, and 30 μl was injected into the gas chromatograph. […] LOQ of the method was 25 mg L-1, and the coefficient of variation (CV %) was <15% at all analyzed concentrations including LOQ.
PK parameters were determined by non-compartmental analysis using the pharmacokinetic software package WinNonlin, version 4.0.1 (SCI Software, Lexington, Ky., U.S.A.; Yamaoka, et al., 1978 (YAMAOKA, K., […], T., & UNO, T. (1978). Statistical moments in pharmacokinetics. J Pharmacokinet. Biopharm., 6, 547-558); Gibaldi & Perrier, 1982 (GIBALDI, M., & PERRIER, D. (1982). Pharmacokinetics (2nd ed.). pp. 199-219 Marcel Dekker: New York); Rowland & Tozer, 1995 (ROWLAND, M., & TOZER, T. (1995). Pharmacological Response. In: Clinical Pharamcokeintics. pp. 340-365) Baltimore: Williams & Wilkins)). The terminal half-life (t½) was calculated as 0.693/β, where β is the linear terminal slope of the concentration (C)-versus-time curve. The area under the C-versus-time curve (AUC) was calculated by trapezoidal rule with extrapolation to infinity. The mean residence time (MRT) was calculated from the quotient AUMC/AUC, where AUMC is the area under the concentration-time product versus time curve from zero to infinity. Total (apparent) clearance (CL/F) was calculated from the quotient of […] with F being the absolute bioavailability following i.p. administration. The apparent volume of distribution (Vβ/F) was calculated from the quotient of CL and β. The peak plasma concentration (Cmax) and the time to reach Cmax (tmax) were determined empirically by visual inspection.

[3] = system: motor performance (rotarod test); test: Neurological motor dysfunction tests (accelerating rotarod, observation for sedation); conditions: for motor performance, time to fall off the rotarod: n=6, vehicle 118.0±2.3; for effect on motor performance (rotarod test) compared to vehicle: highest doses tested (VPA 400, DID 90 mg kg^−1 i.p.), p>0.05, n=6; for neurological motor dysfunction or sedation at the highest drug dose tested: normal rats
Experimental: On the day of testing, a baseline response was obtained, and rats were subsequently administered drug or vehicle. […] In addition, we examined our rats individually for signs of motor dysfunction and sedation as assessed by posture and gate during spontaneous and induced movement, grooming, chewing, stepping reflex, and startle reflex evoked by tapping on the cage.
For each drug and dose, attenuation of tactile allodynia (threshold measured in g) was measured. […] These areas under the response curve values for every group of rats per dose were evaluated against vehicle treatment using the nonparametric Wilcoxon one tailed test (dose of drug tested vs. vehicle on the same treatment). […] A p value <0.05 was considered statistically significant.

[4] = system: neuropathic pain due to spinal cord injury; conditions: double-blind placebo-controlled trial; cited from earlier work
[5] = DID 40 mg kg^−1 i.p., plasma, SNL operated rats

SMILES	MES-ED50 [1]	minimal plasma concentration associated with the antiallodynic effect ([2]; DID 40 mg kg^−1 i.p.)	Vβ/F [2, 5]	CL/F [2, 5]	Cmax [2, 5]	MRT [2, 5]	Tmax [2, 5]	half-life [2, 5]	motor performance, time to fall off the rotarod ([3]; DID 90 mg kg^−1 i.p., 120 min after dosing)	effect on motor performance (rotarod test) compared to vehicle [3]	neurological motor dysfunction or sedation at the highest drug dose tested [3]	pain relief versus placebo [4]	minimal plasma concentration associated with the antiallodynic effect ([2]; VPA 300 mg kg^−1 i.p.)	CL/F ([2]; plasma, 300 mg/kg)	Cmax ([2]; plasma, 300 mg/kg)	MRT ([2]; plasma, 300 mg/kg)	Tmax ([2]; plasma, 300 mg/kg)	half-life ([2]; plasma, 300 mg/kg)	motor performance, time to fall off the rotarod ([3]; VPA 400 mg kg^−1 i.p., 60 min after dosing)
CC(C)C(C(N)=O)C(C)C [DID, diisopropylacetamide]	51 mg/kg	7 mg/L	1.2 L/kg	8.33 mL/min/kg	28 µg/mL	2.4 h	0.25 h	1.5 h	103.8 ± 22.3 s	no significant effect	not sufficient to cause neurological motor dysfunction or sedation								
CCCC(CCC)C(=O)O [VPA, Valproic acid, reference compound]										no significant effect	not sufficient to cause neurological motor dysfunction or sedation	no difference between VPA and placebo in relieving pain	125 mg/L	3.33 mL/min/kg	515 µg/mL	5.8 h	0.5 h	4.6 h	96.8 ± 23.7 s
